Measurements taken from patent US20260035403A1, “NUCLEOSIDE LINE-1 INHIBITORS” (TRANSPOSON THERAPEUTICS, INC., priority 2022, published 2026).

tested on: human LINE-1; experiment: Human LINE-1 retrotransposition assay (HeLa cell-based dual-luciferase reporter); conditions: Homo sapiens, HeLa, 72 h, Human LINE-1 activity inhibition; HeLa cells, reporter plasmid pYX017, Firefly/Renilla, 72 h incubation
Method: Representative Compounds of the Disclosure were tested for inhibition of retrotransposition activity of human LINE-1 in HeLa cells according to the following procedure.
HeLa cervical cancer cells were cultivated at 37° C. in a humidified 5% CO2 incubator in Dulbecco's Modified Eagle's Medium (DMEM)—high glucose, with 4500 mg/L glucose, L-glutamine, sodium pyruvate and sodium bicarbonate (Sigma), supplemented with 10% of heat inactivated fetal bovine serum (Thermo Fisher).
Assays were performed using reporter plasmid pYX017 as described (Xie, et al., 2011) with several modifications. The reporter assay was performed in 96-well white optical bottom plates. HeLa cells were seeded in wells 24 h prior to transfection and compound treatment so that cells were approximately 30% confluent on the day of transfection. Different cell plating densities were tested and a density of 2×10^3 cells was determined to be optimal.
Compounds were resuspended in DMSO. Serial dilutions (1:3) were prepared in DMSO. Medium containing different concentrations of the compounds were prepared by adding 2 μl of the compound dilution to 1 ml of the culture medium. The final concentration of DMSO in the medium was 0.2%.
FuGENE® HD transfection reagent (Promega, E2311, Lot 382574 and Lot 397842) was used to transfect the plasmids into the cells. The transfection reagent: DNA mixture was prepared in OpiMEM (Thermo Fisher) according to manufacturer's instructions. Different ratios of transfection reagent to DNA were tested and a ratio of 3:1 was determined to be optimal. Culture medium was removed from the cells and discarded. The transfection reagent: DNA mixture (5 μl) was mixed with the compound containing medium (100 μl/well) and this was added onto the cells of each well. Cells were incubated at 37° C./5% CO2 for different incubation time. A 72 h incubation time was determined to be optimal.
Luciferase reporter activity was quantified with the Dual-Luciferase® Reporter Assay System (Promega) according to manufacturer's instructions for multiwell plates except that cells were lysed directly on the multiwell plate with 30 μl of the passive lysis buffer (PLB) for 20 min at room temperature, with gentle shaking to ensure complete cell lysis.
Firefly and Renilla luciferase signals were measured using a SpectraMax i3× Multi-Mode Microplate Reader. Integration times of 100 ms and 10 ms were used to measure the Firefly and Renilla signals respectively. Relative L1 activity is calculated as Firefly/Renilla*1000 or Firefly/Renilla*10,000. Dose response inhibition data were fit to a four parameter logistic equation using non-linear regression (using Graphpad Prism 8), to determine IC50 values for each inhibitor.

IC50	SMILES
> 50 µM	CC[C@]1(CO)O[C@@H](n2cnc3c(N)nc(Cl)nc32)[C@H](O)[C@@H]1O [compound 195, (2R,3S,4R,5R)-5-(6-amino-2-chloro-9H-purin-9-yl)-2-ethyl-2-(hydroxymethyl)tetrahydrofuran-3,4-diol]
> 50 µM	C#C[C@@]1(CO)C=C[C@H](n2cc(OC(F)F)c(=O)[nH]c2=O)O1 [compound 57, 5-(difluoromethoxy)-1-((2R,5R)-5-ethynyl-5-(hydroxymethyl)-2,5-dihydrofuran-2-yl)pyrimidine-2,4(1H,3H)-dione]
3.7 µM	C#C[C@]1(CO)O[C@H](n2cnc3c(N)ncnc32)C[C@@H]1O [compound 80, (2R,3S,5S)-5-(6-amino-9H-purin-9-yl)-2-ethynyl-2-(hydroxymethyl)tetrahydrofuran-3-ol]
15 µM	C#C[C@]1(CO)O[C@@H](N2C=NC3C(NC)=NC(F)=NC32)C[C@@H]1O (stereo partly drawn) [compound 93, (2R,3S,5R)-2-ethynyl-5-(2-fluoro-6-(methylamino)-4,5-dihydro-9H-purin-9-yl)-2-(hydroxymethyl)tetrahydrofuran-3-ol]
1.94 µM	CC[C@]1(CO)O[C@@H](n2cnc3c(N)ncnc32)[C@@H](O)[C@@H]1O [compound 194, (2R,3S,4S,5R)-5-(6-amino-9H-purin-9-yl)-2-ethyl-2-(hydroxymethyl)tetrahydrofuran-3,4-diol]
~50 µM	CC[C@]1(CO)O[C@@H](n2cnc3c(N)nc(Cl)nc32)C[C@@H]1O [compound 190, (2R,3S,5R)-5-(6-amino-2-chloro-9H-purin-9-yl)-2-ethyl-2-(hydroxymethyl)tetrahydrofuran-3-ol]
0.15 µM	CC[C@]1(CO)O[C@@H](n2cc(Br)c(N)nc2=O)C[C@@H]1O [compound 105, 4-amino-5-bromo-1-((2R,4S,5R)-5-ethyl-4-hydroxy-5-(hydroxymethyl)tetrahydrofuran-2-yl)pyrimidin-2(1H)-one]
0.429 µM	C#C[C@]1(CO)O[C@H](n2cnc3c(NC4CC4)nc(N)nc32)C[C@@H]1O [compound 83, (2R,3S,5S)-5-(2-amino-6-(cyclopropylamino)-9H-purin-9-yl)-2-ethynyl-2-(hydroxymethyl)tetrahydrofuran-3-ol]
1.28 µM	C=C[C@]1(CO)O[C@H](n2ccc(N)nc2=O)C[C@@H]1O [compound 89, 4-amino-1-((2S,4S,5R)-4-hydroxy-5-(hydroxymethyl)-5-vinyltetrahydrofuran-2-yl)pyrimidin-2(1H)-one]
23.4 µM	C#C[C@]1(CO)O[C@H](n2cnc3c(N)nc(N)nc32)C[C@@H]1O [compound 72, (2R,3S,5S)-5-(2,6-diamino-9H-purin-9-yl)-2-ethynyl-2-(hydroxymethyl)tetrahydrofuran-3-ol]
24 µM	C#C[C@@]1(COC)C=C[C@H](n2cc(C)c(=O)[nH]c2=O)O1 [compound 106, 1-((2R,5R)-5-ethynyl-5-(methoxymethyl)-2,5-dihydrofuran-2-yl)-5-methylpyrimidine-2,4(1H,3H)-dione]
0.417 µM	CNc1nc(N)nc2c1ncn2[C@H]1C[C@H](O)[C@](CO)(CF)O1 [compound 166, (2R,3S,5R)-5-(2-amino-6-(methylamino)-9H-purin-9-yl)-2-(fluoromethyl)-2-(hydroxymethyl)tetrahydrofuran-3-ol]
0.738 µM	C=C[C@]1(CO)OC(n2cc(OC)c(=O)[nH]c2=O)C[C@@H]1O (stereo partly drawn) [compound 66, 1-((4S,5R)-4-hydroxy-5-(hydroxymethyl)-5-vinyltetrahydrofuran-2-yl)-5-methoxypyrimidine-2,4(1H,3H)-dione]

More lines, now with the values behind:

SMILES	IC50
CC[C@]1(CO)O[C@@H](n2cnc3c(NC4CC4)ncnc32)C[C@@H]1O [Cpd. No. 96, (2R,3S,5R)-5-(6-(cyclopropylamino)-9H-purin-9-yl)-2-ethyl-2-(hydroxymethyl)tetrahydrofuran-3-ol]	7 µM
C#C[C@]1(CO)O[C@@H](n2cc(C)c(=O)[nH]c2=O)C[C@H]1O [compound 29, 1-((2R,4R,5R)-5-ethynyl-4-hydroxy-5-(hydroxymethyl)tetrahydrofuran-2-yl)-5-methylpyrimidine-2,4(1H,3H)-dione]	> 50 µM
CC[C@]1(CO)O[C@H](n2ccc(=O)[nH]c2=O)C[C@@H]1O [Cpd. No. 20, 1-((2S,4S,5R)-5-ethyl-4-hydroxy-5-(hydroxymethyl)tetrahydrofuran-2-yl)pyrimidine-2,4(1H,3H)-dione]	7.21 µM
C#C[C@]1(CO)O[C@@H](n2cnc3c(N)nc(F)nc32)[C@H](F)[C@@H]1O [compound 13, (2R,3R,4R,5R)-5-(6-amino-2-fluoro-9H-purin-9-yl)-2-ethynyl-4-fluoro-2-(hydroxymethyl)tetrahydrofuran-3-ol]	370 µM
C#C[C@@]1(CO)C=C[C@H](n2cc(C#N)c(=O)[nH]c2=O)O1 [compound 33, 1-((2R,5R)-5-ethynyl-5-(hydroxymethyl)-2,5-dihydrofuran-2-yl)-2,4-dioxo-1,2,3,4-tetrahydropyrimidine-5-carbonitrile]	> 12.5 µM
C=C[C@]1(CO)O[C@@H](n2cnc3c(NC4CC4)nc(N)nc32)C[C@@H]1O [Cpd. No. 4, (2R,3S,5R)-5-(2-amino-6-(cyclopropylamino)-9H-purin-9-yl)-2-(hydroxymethyl)-2-vinyltetrahydrofuran-3-ol]	0.401 µM
C#C[C@@]1(CO)C=C[C@H](n2cc(C3CC3)c(=O)[nH]c2=O)O1 [compound 27, 5-cyclopropyl-1-((2R,5R)-5-ethynyl-5-(hydroxymethyl)-2,5-dihydrofuran-2-yl)pyrimidine-2,4(1H,3H)-dione]	> 50 µM
C#C[C@]1(CO)O[C@H](n2nc(C)c3c(N)nc(F)nc32)C[C@@H]1O [Cpd. No. 3, (2R,3S,5S)-5-(4-amino-6-fluoro-3-methyl-1H-pyrazolo[3,4-d]pyrimidin-1-yl)-2-ethynyl-2-(hydroxymethyl)tetrahydrofuran-3-ol]	0.041 µM
CC[C@]1(CO)O[C@@H](n2cc(OC)c(=O)[nH]c2=O)C[C@@H]1O [Cpd. No. 103, 1-((2R,4S,5R)-5-ethyl-4-hydroxy-5-(hydroxymethyl)tetrahydrofuran-2-yl)-5-methoxypyrimidine-2,4(1H,3H)-dione]	> 12.5 µM
C#C[C@@]1(CO)C=C[C@H](n2cc(F)c(N)nc2=O)O1 [compound 40, 4-amino-1-((2R,5R)-5-ethynyl-5-(hydroxymethyl)-2,5-dihydrofuran-2-yl)-5-fluoropyrimidin-2(1H)-one]	> 50 µM
C#C[C@]1(CO)O[C@H](n2cc(C)c(N)nc2=O)C[C@@H]1O [compound 56, 4-amino-1-((2S,4S,5R)-5-ethynyl-4-hydroxy-5-(hydroxymethyl)tetrahydrofuran-2-yl)-5-methylpyrimidin-2(1H)-one]	> 50 µM
CC[C@]1(CO)O[C@@H](n2cc(Br)c(=O)[nH]c2=O)C[C@@H]1O [Cpd. No. 2, 5-bromo-1-((2R,4S,5R)-5-ethyl-4-hydroxy-5-(hydroxymethyl)tetrahydrofuran-2-yl)-4-hydroxypyrimidin-2(1H)-one]	6.9 µM
C=C[C@]1(CO)O[C@@H](n2cc(C)c(=O)[nH]c2=O)C[C@H]1O [compound 25, 1-((2R,4R,5R)-4-hydroxy-5-(hydroxymethyl)-5-vinyltetrahydrofuran-2-yl)-5-methylpyrimidine-2,4(1H,3H)-dione]	> 50 µM
CC[C@]1(CO)OC(n2cc(OC)c(=O)[nH]c2=O)C[C@@H]1O (stereo partly drawn) [Cpd. No. 68, 1-((4S,5R)-5-ethyl-4-hydroxy-5-(hydroxymethyl)tetrahydrofuran-2-yl)-5-methoxypyrimidine-2,4(1H,3H)-dione]	0.721 µM
CC[C@]1(CO)O[C@@H](n2cnc3c(NC4CC4)nc(N)nc32)C[C@@H]1O [Cpd. No. 97, (2R,3S,5R)-5-(2-amino-6-(cyclopropylamino)-9H-purin-9-yl)-2-ethyl-2-(hydroxymethyl)tetrahydrofuran-3-ol]	0.946 µM
C#C[C@]1(CO)O[C@H](n2ccc(N)nc2=O)C[C@@H]1O [compound 32, 4-amino-1-((2S,4S,5R)-5-ethynyl-4-hydroxy-5-(hydroxymethyl)tetrahydrofuran-2-yl)pyrimidin-2(1H)-one]	0.84 µM
C#C[C@@]1(CO)C=C[C@H](n2cc(CC)c(=O)[nH]c2=O)O1 [compound 35, 5-ethyl-1-((2R,5R)-5-ethynyl-5-(hydroxymethyl)-2,5-dihydrofuran-2-yl)pyrimidine-2,4(1H,3H)-dione]	> 50 µM
C#C[C@@]1(CO)C=C[C@H](n2cnc3cncnc32)O1 [compound 38, ((2R,5R)-2-ethynyl-5-(9H-purin-9-yl)-2,5-dihydrofuran-2-yl)methanol]	> 50 µM
